Reference: article PMC11591356, “Immunomodulatory Effects of the Tobacco Defensin NaD1” (Antibiotics, 2024)
Read-outs that look alike come from different tables or passages of the source. Ends that are not written are not given here.

Experiments:
[1] = system: primary monocytes; test: Multiplex xMAP assessment of cytokine production by primary monocytes; type: cell-based, human; settings: monocytes + 2 μM NaD1, 24 h
Source text: Peripheral blood mononuclear cells (PBMCs) from healthy donors were purchased from American Type Culture Collection (ATCC PCS-800-011). Primary monocytes were isolated from PBMCs by adherence to the plastic surface. For that, PBMCs were thawed, resuspended in RPMI-1640 culture medium (Corning, Corning, NY, USA) without serum at a concentration of 2 × 10^6 cells/mL, seeded into the wells of a 24-well plate and placed in a humidified CO2-intubator (CellXpert C170i, Eppendorf, Hamburg, Germany) for 1 h. After that, non-adherent cells were removed from the wells and attached monocytes were thoroughly washed with PBS and cultured in a CO2-intubator in complete RPMI-1640 containing 10% human serum (HS Type AB, Capricorn Scientific, Ebsdorfergrund, Germany) and 1×antibiotic-antimycotic (1×AA) solution (Sigma, St. Louis, MO, USA).
For the study of the immunomodulatory properties of NaD1, monocytes and immature dendritic cells (moDC) were seeded into the wells of a 24-well plate at densities of 4 × 10^5 and 1.3 × 10^5 cells per well, respectively, in complete RPMI-1640 with 10% HS and AA solution. Then, 24 h later, the culture medium was replaced by a fresh one either with 2 μM NaD1 for stimulation of the cells or without if for the control wells. The cultures were kept in a humidified CO2-intubator for 24 h and then the samples of the culture media were taken and frozen.
The absolute levels of 48 cytokines, chemokines and growth factors were determined at a protein level by multiplex xMAP technology (Luminex, Austin, TX, USA). For this, a MILLIPLEX Human Panel A kit (HCYTA-60K-PX48, Merck, Darmstadt, Germany) was used and the following 48 analytes were evaluated in two biological replications: sCD40L, EGF, CCL11/Eotaxin-1, FGF-basic/FGF-2, Flt-3 ligand, CX3CL1/Fractalkine, G-CSF, GM-CSF, GROα, IFNα2, IFN-γ, IL-1α, IL-1β, IL-1RA, IL-2, IL-3, IL-4, IL-5, IL-6, IL-7, CXCL8/IL-8, IL-9, IL-10, IL-12(p40), IL-12(p70), IL-13, IL-15, IL-17A/CTLA8, IL-17E/IL-25, IL-17F, IL-18, IL-22, IL-27, CXCL10/IP-10, CCL2/MCP-1, CCL7/MCP-3, M-CSF, CCL22/MDC, CXCL9/MIG, CCL3/MIP-1α, CCL4/MIP-1β, PDGF-AA, PDGF-AB/BB, CCL5/RANTES, TGF-α, TNF-α, TNF-β and VEGF-A. The fluorescent data were obtained on a MAGPIX system (Merck) operated with xPONENT 4.2 software (Merck). Final analysis was performed in MILLIPLEX Analyst v5.1 software (Merck).

[2] = system: Caco-2 cells in a monolayer; test: Cytotoxicity assay, resazurin method, Caco-2 cells in a monolayer; type: cell-based, human; settings: 24 h; for Cell viability: Caco-2 monolayer
Method: (§1) The cytotoxic effects of the tobacco defensin NaD1 towards PBMCs or Caco-2 cells were investigated in 96-well plates using the resazurin method as previously described. In brief, 4 × 10^5 per well Caco-2 cells not in a monolayer as well as Caco-2 cells in a monolayer in DMEM/F12 (1:1) medium with 10% FBS or 2 × 10^6 PBMCs per well in RPMI-1640 also with 10% FBS were incubated with serial dilutions of NaD1 at final concentrations from 0.39 to 50 μM or from 2.1 to 180 μM for 24 h. After that, resazurin (Sigma, St. Louis, MO, USA) was added at a final concentration of 70 µM and the plates were incubated overnight (16–18 h). Untreated cells and cells treated by non-ionogenic detergent Triton X-100 were used as negative and positive controls, respectively. […] The cell viability was estimated by resorufin fluorescence registered at […] via the following equation: cell viability (%) = (Fsample/Fcontrol) × 100%. Experiment was carried out twice in duplicate.

[3] = system: umbilical vein endothelial cells (HUVEC); set-up: method as in PMID 28179997; settings: read-out: IC50, MTT cell viability assay; cited from earlier work
[4] = system: Caco-2 cells not in a monolayer; settings: 24 h, resazurin
Method: as §1

## NaD1: Recombinant tobacco floral defensin NaD1 (UNIPROT Q8GTM0), obtained by heterologous expression in E. coli; FITC-labeled in the permeability assay (RECKTESNTFPGICITKPPCRKACISEKFTDGHCSKILRRCLCTKPC; cysteine pairing not given here; also: FITC label; UniProt Q8GTM0 26-72, looked up)
[1]; control 0.36
  IL-2 absolute level: 0.51 pg/mL
[1]; control 0.73
  TGF-a absolute level: 0.73 pg/mL
[1]; control 0.81
  IFNg absolute level: 1.13 pg/mL
[1]; control 0.87
  IL-5 absolute level: <0.33↓ pg/ml
[1]; control 1.25
  IL-4 absolute level: 1.44 pg/mL
[1]; control 1.81
  IL-18 absolute level: 2.95 pg/mL
[1]; control 1.89
  TNFb absolute level: 1.49 pg/mL
[1]; control 2.8
  IL-12 (p40) absolute level: 2.8 pg/mL
[1]; control 4.96
  IL-15 absolute level: 4.19 pg/mL
[1]; control 5.17
  IL-9 absolute level: 3.78 pg/mL
[1]; control 5.33
  IL-1a absolute level: 7.2 pg/mL
[1]; control 6.18
  IL-10 absolute level: 6.66 pg/mL
[1]; control 10.38
  G-CSF absolute level: 6.59 pg/mL
[1]; control 10.99
  IL-13 absolute level: 5.29 pg/mL
[1]; control 12.11
  IL-1b absolute level: 12.11 pg/mL
[1]; control 12.18
  EGF absolute level: 14.11 pg/mL
[1]; control 13.22
  IFNa2 absolute level: 18.46 pg/mL
[1]; control 27.82
  IL-6 absolute level: 26.88 pg/mL
[1]; control 29.35
  MIP-1a absolute level: 27.88 pg/mL
[1]; control 29.57
  MIP-1b absolute level: 34.19 pg/mL
[1]; control 35.56
  PDGF-AA absolute level: 43.29 pg/mL
[1]; control 41.58
  Fractalkine absolute level: 32.26 pg/mL
[1]; control 45.68
  FGF-2 absolute level: 71.22 pg/mL
[1]; control 54.1
  VEGFa absolute level: 52.47 pg/mL
[1]; control 77.73
  TNFa absolute level: 79.94 pg/mL
[1]; control 82.06
  MCP-1 absolute level: 75.95 pg/mL
[1]; control 120.38
  MCP-3 absolute level: 119.63 pg/mL
[1]; control 121.25
  IL-27 absolute level: 94.48 pg/mL
[1]; control 184.29
  RANTES absolute level: 402.83 pg/mL
[1]; control 204.3
  IL-1RA absolute level: 204.3 pg/mL
[1]; control 290.24
  IP-10 absolute level: 390.23 pg/mL
[1]; control 342.86
  GROa absolute level: 261.06 pg/mL
[1]; control 879.89
  MDC absolute level: 759.82 pg/mL
[1]; control 984.71
  PDGF-AB/BB absolute level: 1457 pg/mL
[1]; control 1021
  MIG absolute level: 1301 pg/mL
[1]; control 9181
  IL-8 absolute level: 6023 pg/mL
[1]; control <0.32
  IL-7 absolute level: <0.32↓ pg/ml
[1]; control <0.61
  FLT-3L absolute level: 0.69 pg/mL
[1]; control <0.77
  IL-3 absolute level: <0.77↓ pg/ml
[1]; control <1.00
  IL-17A absolute level: <1.00↓ pg/ml
[1]; control <1.30
  GM-CSF absolute level: <1.30↓ pg/ml
[1]; control <1.79
  IL-12 (p70) absolute level: <1.79↓ pg/ml
[1]; control <3.80
  Eotaxin absolute level: <3.80↓ pg/ml
[1]; control <9.00
  IL-22 absolute level: <9.00↓ pg/ml
[1]; control <16.98
  IL-17F absolute level: <16.98↓ pg/ml
[1]; control <23.97
  M-GSF absolute level: <23.97↓ pg/ml
[1]; control <25.82
  IL-17E/IL-25 absolute level: <25.82↓ pg/ml
[1]; two biological replications, untreated control 151.36
  sCD40L absolute level: 151.36 pg/mL
[2]; peptide 25 µM
  Cell viability: approximately 85%
[2]; peptide 50 µM
  Cell viability: ~70%
[2]; peptide 12.5 µM
  Cytotoxic effect on Caco-2 cells in a monolayer: no effects
[3]
  IC50: ~10 µM
[4]; calculated
  CC50: 61.8 µM
[4]; peptide 53.3 µM
  Cell viability: approximately 62%
[4]; peptide 180 μM
  Cell viability: 8%
